Results taken from article PMC12567244, “Innovative Amino-Functionalization of Pyrido[2,3-d]pyrimidine Scaffolds for Broad Therapeutic Applications Supported by Computational Analyses” (Pharmaceuticals, 2025).
Where “and” joins values, the source holds several entries; their conditions need not be identical. Equal values may be shown once.

Columns and labels:
E.coli ATCC25915 = experiment: Well diffusion inhibition zone, E. coli; settings: Escherichia coli, ATCC25915, read-out: Inhibition zone E.coli ATCC25915
S. aureus ATCC25923 = experiment: Well diffusion inhibition zone, S. aureus; settings: Staphylococcus aureus, ATCC25923, read-out: Inhibition zone S. aureus ATCC25923
E. faecalis ATCC29212 = experiment: Well diffusion inhibition zone, E. faecalis; settings: Enterococcus faecalis, ATCC29212, read-out: Inhibition zone E. faecalis ATCC29212
P. aeruginosa ATCC10145 = experiment: Well diffusion inhibition zone, P. aeruginosa; settings: Pseudomonas aeruginosa, ATCC10145, read-out: Inhibition zone P. aeruginosa ATCC10145
liver carcinoma (HepG-2) = experiment: MTT cytotoxicity assay, HepG-2; settings: for SI HepG-2: IC50 WI-38 / IC50 HepG-2; for IC50: read-out: IC50 HepG-2, MTT, mean ± SD of three measurements
in vitro = settings: human, WI-38 normal lung fibroblast cells
HeLa, HepG-2, and MCF-7 = experiment: MTT cytotoxicity, range over the cancer cell panel; settings: read-out: IC50 across HeLa, HepG-2 and MCF-7; range over all examined cancer cell lines
breast carcinoma (MCF-7) = experiment: MTT cytotoxicity assay, MCF-7; settings: for SI MCF-7: IC50 WI-38 / IC50 MCF-7; for IC50: read-out: IC50 MCF-7, MTT, mean ± SD of three measurements
[1] = test system: cervical carcinoma (HeLa); experiment: MTT cytotoxicity assay, HeLa; settings: for SI HeLa: IC50 WI-38 / IC50 HeLa; for IC50: read-out: IC50 HeLa, MTT, mean ± SD of three measurements

SMILES: O=C(O)c1cn(C2CC2)c2cc(N3CCNCC3)c(F)cc2c1=O [Ciprofloxacin, reference compound]
- zone of inhibition at 50 µg/mL (E.coli ATCC25915): 10 mm
- zone of inhibition at 50 µg/mL (S. aureus ATCC25923): 8 ± 0.15 mm
- zone of inhibition at 50 µg/mL (E. faecalis ATCC29212): 7.5 mm
- zone of inhibition at 50 µg/mL (P. aeruginosa ATCC10145): 12.3 ± 0.4 mm

SMILES: Cn1c(=O)c2c(-c3ccc(Cl)cc3)c(C(=O)Nc3n[nH]cc3NN)c(N)nc2n(C)c1=O [Compound 3, 7-Amino-5-(4-chlorophenyl)-N-(4-hydrazinyl-1H-pyrazol-3-yl)-1,3-dimethyl-2,4-dioxo-1,2,3,4-tetrahydropyrido[2,3-d]pyrimidine-6-carboxamide]
- SI HepG-2 (liver carcinoma (HepG-2)): 2.46
- IC50 (liver carcinoma (HepG-2)): 21.4 ± 1.5 µM
- IC50 at 48 h (in vitro): 52.8 ± 2.9 µM
- IC50 (HeLa, HepG-2, and MCF-7): 14 to 26 µM
- SI MCF-7 (breast carcinoma (MCF-7)): 2.70
- IC50 (breast carcinoma (MCF-7)): 19.5 ± 1.3 µM
- SI HeLa [1]: 3.73
- IC50 [1]: 14.1 ± 1.2 µM

SMILES: Cn1c(=O)c2c(-c3ccc(Cl)cc3)c(-c3nnc(S)n3N)c(N)nc2n(C)c1=O [Compound 4, 7-Amino-6-(4-amino-5-mercapto-4H-1,2,4-triazol-3-yl)-5-(4-chlorophenyl)-1,3-dimethylpyrido[2,3-d]pyrimidine-2,4(1H,3H)-dione]
- SI HepG-2 (liver carcinoma (HepG-2)): 1.99
- IC50 (liver carcinoma (HepG-2)): 23.1 ± 1.6 µM
- IC50 at 48 h (in vitro): 46.1 ± 2.7 µM
- zone of inhibition at 100 µg/mL (P. aeruginosa ATCC10145): 6 mm
- IC50 (HeLa, HepG-2, and MCF-7): 14 to 26 µM
- SI MCF-7 (breast carcinoma (MCF-7)): 1.76
- IC50 (breast carcinoma (MCF-7)): 26.1 ± 1.7 µM
- SI HeLa [1]: 2.43
- IC50 [1]: 18.9 ± 1.4 µM

SMILES: Cn1c(=O)c2c(-c3ccc(Cl)cc3)c(C(=O)NC(=S)NN)c(N)nc2n(C)c1=O [Compound 5, 7-Amino-5-(4-chlorophenyl)-N-(hydrazinecarbonothioyl)-1,3-dimethyl-2,4-dioxo-1,2,3,4-tetrahydropyrido[2,3-d]pyrimidine-6-carboxamide]
- IC50 (liver carcinoma (HepG-2)): > 100 µM
- IC50 at 48 h (in vitro): 35.2 ± 2.2 µM
- IC50 (HeLa, HepG-2, and MCF-7): > 84 µM
- SI MCF-7 (breast carcinoma (MCF-7)): 0.41
- IC50 (breast carcinoma (MCF-7)): 84.1 ± 4.2 µM
- SI HeLa [1]: 0.39
- IC50 [1]: 89.4 ± 4.6 µM

SMILES: Cc1cc(C)n(C(=O)c2c(N)nc3c(c2-c2ccc(Cl)cc2)c(=O)n(C)c(=O)n3C)n1 [Compound 6, 7-Amino-5-(4-chlorophenyl)-6-(3,5-dimethyl-1H-pyrazole-1-carbonyl)-1,3-dimethylpyrido[2,3-d]pyrimidine-2,4(1H,3H)-dione]
- SI HepG-2 (liver carcinoma (HepG-2)): 1.29
- IC50 (liver carcinoma (HepG-2)): 29.7 ± 1.8 µM
- IC50 at 48 h (in vitro): 38.4 ± 2.6 µM
- IC50 (HeLa, HepG-2, and MCF-7): 24 to 32 µM
- SI MCF-7 (breast carcinoma (MCF-7)): 1.20
- IC50 (breast carcinoma (MCF-7)): 32 ± 1.9 µM
- SI HeLa [1]: 1.54
- IC50 [1]: 24.8 ± 1.6 µM

SMILES: Cn1c(=O)c2c(-c3ccc(Cl)cc3)c(-c3nnc(S)o3)c(N)nc2n(C)c1=O [Compound 7, 7-Amino-5-(4-chlorophenyl)-6-(5-mercapto-1,3,4-oxadiazol-2-yl)-1,3-dimethylpyrido[2,3-d]pyrimidine-2,4(1H,3H)-dione]
- SI HepG-2 (liver carcinoma (HepG-2)): 1.52
- IC50 (liver carcinoma (HepG-2)): 17.5 ± 1.3 µM
- IC50 at 48 h (in vitro): 26.8 ± 1.8 µM
- IC50 (HeLa, HepG-2, and MCF-7): 9.72 to 17.5 µM
- SI MCF-7 (breast carcinoma (MCF-7)): 2.30
- IC50 (breast carcinoma (MCF-7)): 11.6 ± 0.9 µM
- SI HeLa [1]: 2.75
- IC50 [1]: 9.72 ± 0.9 µM

SMILES: Cn1c(=O)c2c(-c3ccc(Cl)cc3)c(C3=NN=C(N)C3C#N)c(N)nc2n(C)c1=O (stereo not drawn) [Compound 8, 3-Amino-5-[7-amino-5-(4-chlorophenyl)-1,3-dimethyl-2,4-dioxo-1,2,3,4-tetrahydropyrido[2,3-d]pyrimidin-6-yl]-4H-pyrazole-4-carbonitrile]
- SI HepG-2 (liver carcinoma (HepG-2)): 0.30
- IC50 (liver carcinoma (HepG-2)): 82.8 ± 4.1 µM
- IC50 at 48 h (in vitro): 25.2 ± 1.8 µM
- IC50 (HeLa, HepG-2, and MCF-7): > 50 µM and 62 to 88 µM
- SI MCF-7 (breast carcinoma (MCF-7)): 0.31
- IC50 (breast carcinoma (MCF-7)): 79.3 ± 3.9 µM
- SI HeLa [1]: 0.35
- IC50 [1]: 71.4 ± 3.8 µM

SMILES: Cn1c(=O)c2c(-c3ccc(Cl)cc3)c(-c3nn(CCC#N)c(=S)o3)c(N)nc2n(C)c1=O [Compound 9, 3-{5-[7-Amino-5-(4-chlorophenyl)-1,3-dimethyl-2,4-dioxo-1,2,3,4-tetrahydropyrido [2,3-d]pyrimidin-6-yl]-2-thioxo-1,3,4-oxadiazol-3(2H)-yl}propanenitrile]
- IC50 (liver carcinoma (HepG-2)): 88.6 ± 4.4 µM
- IC50 at 48 h (in vitro): > 100 µM
- zone of inhibition at 100 µg/mL (P. aeruginosa ATCC10145): 7.6 mm
- IC50 (HeLa, HepG-2, and MCF-7): > 50 µM and 62 to 88 µM
- IC50 (breast carcinoma (MCF-7)): 67.8 ± 3.6 µM
- IC50 [1]: 62.7 ± 3.5 µM

SMILES: Cn1c(=O)c2c(-c3ccc(Cl)cc3)c(-c3nn(CCc4nn[nH]n4)c(=S)o3)c(N)nc2n(C)c1=O [Compound 10, 6-{4-[2-(2H-Tetrazol-5-yl)ethyl]-5-thioxo-4,5-dihydro-1,3,4-oxadiazol-2-yl}-7-amino-5-(4-chlorophenyl)-1,3-dimethylpyrido[2,3-d]pyrimidine-2,4(1H,3H)-dione]
- SI HepG-2 (liver carcinoma (HepG-2)): 0.54
- IC50 (liver carcinoma (HepG-2)): 69.4 ± 3.7 µM
- IC50 at 48 h (in vitro): 37.9 ± 2.4 µM
- zone of inhibition at 100 µg/mL (P. aeruginosa ATCC10145): 6 mm
- IC50 (HeLa, HepG-2, and MCF-7): > 50 µM
- SI MCF-7 (breast carcinoma (MCF-7)): 0.71
- IC50 (breast carcinoma (MCF-7)): 53.1 ± 3.1 µM
- SI HeLa [1]: 0.77
- IC50 [1]: 48.7 ± 2.8 µM

SMILES: Cn1c(=O)c2c(-c3ccc(Cl)cc3)c(C3=NN=C4N=CNC(=O)C43)c(N)nc2n(C)c1=O (stereo not drawn) [Compound 11, 7-Amino-5-(4-chlorophenyl)-1,3-dimethyl-6-(4-oxo-3a,5-dihydro-4H-pyrazolo [3,4-d]pyrimidin-3-yl)pyrido[2,3-d]pyrimidine-2,4(1H,3H)-dione]
- IC50 (liver carcinoma (HepG-2)): 73.2 ± 3.8 µM
- zone of inhibition at 100 µg/mL (E.coli ATCC25915): 2 ± 0.1 mm
- IC50 at 48 h (in vitro): > 100 µM
- zone of inhibition at 100 µg/mL (P. aeruginosa ATCC10145): 8.6 mm
- IC50 (HeLa, HepG-2, and MCF-7): > 50 µM
- IC50 (breast carcinoma (MCF-7)): 60.6 ± 3.5 µM
- IC50 [1]: 56.4 ± 3.2 µM

SMILES: Cn1c(=O)c2c(-c3ccc(Cl)cc3)c(-c3nnc4n3N=C(Cl)CS4)c(N)nc2n(C)c1=O [Compound 14, 7-Amino-6-(6-chloro-7H-[1,2,4]triazolo [3,4-b][1,3,4]thiadiazin-3-yl)-5-(4-chlorophenyl)-1,3-dimethylpyrido[2,3-d]pyrimidine-2,4(1H,3H)-dione]
- SI HepG-2 (liver carcinoma (HepG-2)): 0.23
- IC50 (liver carcinoma (HepG-2)): 93.7 ± 4.8 µM
- zone of inhibition at 100 µg/mL (E.coli ATCC25915): 8.15 ± 0.3 mm
- zone of inhibition at 100 µg/mL (S. aureus ATCC25923): 3 ± 0.05 mm
- IC50 at 48 h (in vitro): 22.5 ± 1.6 µM
- zone of inhibition at 100 µg/mL (P. aeruginosa ATCC10145): 9.5 mm
- IC50 (HeLa, HepG-2, and MCF-7): > 50 µM and 69 to 94 µM
- SI MCF-7 (breast carcinoma (MCF-7)): 0.29
- IC50 (breast carcinoma (MCF-7)): 75.1 ± 3.8 µM
- SI HeLa [1]: 0.32
- IC50 [1]: 68.7 ± 3.6 µM

SMILES: Cn1c(=O)c2c(-c3ccc(Cl)cc3)c(-c3nnc4sc(S)nn34)c(N)nc2n(C)c1=O [Compound 15, 7-Amino-5-(4-chlorophenyl)-6-(6-mercapto-[1,2,4]triazolo[3,4-b][1,3,4]thiadiazol-3-yl)-1,3-dimethylpyrido[2,3-d]pyrimidine-2,4(1H,3H)-dione]
- SI HepG-2 (liver carcinoma (HepG-2)): 0.79
- IC50 (liver carcinoma (HepG-2)): 51.8 ± 2.9 µM
- zone of inhibition at 100 µg/mL (E.coli ATCC25915): 7.5 ± 0.15 mm
- IC50 at 48 h (in vitro): 41.2 ± 2.5 µM
- zone of inhibition at 100 µg/mL (P. aeruginosa ATCC10145): 10.3 mm
- IC50 (HeLa, HepG-2, and MCF-7): 40 to 52 µM
- SI MCF-7 (breast carcinoma (MCF-7)): 0.86
- IC50 (breast carcinoma (MCF-7)): 47.5 ± 2.8 µM
- SI HeLa [1]: 1.03
- IC50 [1]: 39.8 ± 2.4 µM

SMILES: C#Cc1cccc(Nc2ncnc3cc(OCCOC)c(OCCOC)cc23)c1 [Erlotinib, erlotinib, reference compound]
- IC50 (liver carcinoma (HepG-2)): 9.18 ± 0.6 µM
- IC50 at 48 h (in vitro): 78.3 ± 3.9 µM
- IC50 (breast carcinoma (MCF-7)): 7.26 ± 0.3 µM
- IC50 [1]: 8.04 ± 0.5 µM
